The assay has as its system Sitophilus oryzae. The assay is described as follows: Antifeedant activity against Sitophilus oryzae (rice weevil) assessed as mean diet consumed after 72 hr by flour disk bioassay based feeding choice assay (reference value: 7.61 +/- 1.59 mg/day). It counts as functional.
On to `C=C(C)[C@H]1CC[C@]2(C)C/C=C(\C)CC/C=C(\C(=O)O)CC[C@@H]12`, for which the Activity was found to be 1.17 mg/day.
With `C=C(C)[C@H]1CC[C@]2(C)C/C=C(\C)CC/C=C(\C(=O)OC)CC[C@@H]12`, the Activity is 6.74 mg/day.
The result for `C=C(C)[C@H]1CC[C@]2(C)C[C@H](O)[C@]3(C)CCC=C(CC[C@@H]12)C(=O)O3` reads 1.03 mg/day.
On to `C=C(C)[C@H]1CC[C@]2(C)C/C=C(\C)C[C@@H]3C=C(CC[C@@H]12)C(=O)O3`, for which the Activity worked out at 3.36 mg/day.
Consider `C=C(C)[C@H]1CC[C@]2(C)C[C@H](OC(C)=O)[C@]3(C)CCC=C(CC[C@@H]12)C(=O)O3`, for which the Activity was determined as 6.61 mg/day.

(Values after ChEMBL document CHEMBL3045417, “Structure, Conformation and Absolute Configuration of New Antifeedant Dolabellanes from Trichilia trifolia” (2000).)
